pIC50: −log10 of the molar value.
target: recombinant Human Phosphodiesterase B2 (PDE4B2) (Homo sapiens, UniProt Q07343); assay: Human Phosphodiesterase B2 Alpha Screen Assay; type: biochemical; conditions: cAMP substrate, Alpha Screen cAMP kit, 60 minutes at room temperature
Description: Human Phosphodiesterase B2 Alpha Screen Assay
The assay uses recombinant Human Phosphodiesterase B2 (PDE4B2) produced in house (PrAZL0133), stored at −20° C. The substrate uses cAMP, part of the Alpha Screen cAMP kit (Perkin Elmer, Cat# 6760625M), stored at 4° C. The Alpha Screen kit also includes biotinylated cAMP, acceptor and donor beads.
The assay additions were as follows: Test compounds and controls were added to white 384-well flat-bottom plates (Greiner, Cat# 781075), 0.2 μl in 100% DMSO, followed by 10 μl PDE4B2 in reaction buffer. The reaction buffer constitution was: 50 mM Tris (pH 7.5), 8.3 mM MgCl2, 1.7 mM EGTA and 0.01% (w/v) Brij®35. The enzyme and the compounds were incubated at room temperature for 15 minutes. Then 10 μl cAMP in reaction buffer was added. The assay was stopped after 60 minutes incubation at room temperature by adding 10 μl acceptor beads in detection buffer with 40 mM EDTA. The detection buffer constitution was: 5 mM Tris (pH 7.5), 0.1% (w/v) BSA and 0.1% (v/v) Tween 20. This addition followed by an addition of 10 μl donor beads in detection buffer, with biotinylated cAMP. The plates were then incubated, dark at room temperature, for 5 hours followed by measurement on a Fusion™-α analyser. IC50 values (presented in Table 1) were determined using Xlfit curve fitting using model 205.

Chain of recombinant Human Phosphodiesterase B2 (PDE4B2) (Q07343 1-564 isoform Q07343-2): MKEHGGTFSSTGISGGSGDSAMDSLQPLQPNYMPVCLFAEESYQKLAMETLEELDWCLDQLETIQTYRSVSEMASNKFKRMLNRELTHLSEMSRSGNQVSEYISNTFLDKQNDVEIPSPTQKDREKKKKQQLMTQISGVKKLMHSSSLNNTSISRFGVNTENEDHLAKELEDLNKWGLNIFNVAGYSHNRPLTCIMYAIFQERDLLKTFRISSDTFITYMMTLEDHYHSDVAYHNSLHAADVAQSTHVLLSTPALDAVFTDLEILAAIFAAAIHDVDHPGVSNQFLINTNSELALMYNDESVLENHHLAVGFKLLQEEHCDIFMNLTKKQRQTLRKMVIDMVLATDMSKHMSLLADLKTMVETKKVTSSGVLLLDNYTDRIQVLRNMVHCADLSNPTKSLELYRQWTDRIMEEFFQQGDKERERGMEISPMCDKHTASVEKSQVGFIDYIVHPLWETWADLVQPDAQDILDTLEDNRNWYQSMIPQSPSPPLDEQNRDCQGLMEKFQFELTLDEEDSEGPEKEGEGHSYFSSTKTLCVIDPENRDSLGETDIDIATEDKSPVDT

Compound	pIC50
CSc1cccc(-n2c(=O)n([C@H]3CC[C@@H](NC(=O)[C@@H](O)c4ccccc4)CC3)c(=O)c3cc(F)cnc32)c1 [Example 38, (2S)-N-{cis-4-[6-fluoro-1-[3-(methylthio)phenyl]-2,4-dioxo-1,4-dihydropyrido[2,3-d]pyrimidin-3(2H)-yl]cyclohexyl}-2-hydroxy-2-phenylacetamide]	> 7.80
O=C(c1cc(CO)ccc1O)N1CC[C@@H](n2c(=O)c3cc(F)cnc3n(-c3ccc(F)c(F)c3)c2=O)C1 [Example 82, 1-(3,4-difluorophenyl)-6-fluoro-3-{(3R)-1-[2-hydroxy-5-(hydroxymethyl)benzoyl]pyrrolidin-3-yl}pyrido[2,3-d]pyrimidine-2,4(1H,3H)-dione]	7.14
COC(=O)c1ccccc1C(=O)N[C@H]1CC[C@@H](n2c(=O)c3cc(F)cnc3n(-c3ccc(F)c(F)c3)c2=O)CC1 [Example 7, methyl 2-[({cis-4-[1-(3,4-difluorophenyl)-6-fluoro-2,4-dioxo-1,4-dihydropyrido[2,3-d]pyrimidin-3(2H)-yl]cyclohexyl}amino)carbonyl]benzoate]	8.52
Cc1c(O)cccc1C(=O)N[C@H]1CC[C@@H](n2c(=O)c3cc(F)cnc3n(-c3ccc(F)c(F)c3)c2=O)CC1 [Example 13, N-{cis-4-[1-(3,4-difluorophenyl)-6-fluoro-2,4-dioxo-1,4-dihydropyrido[2,3-d]pyrimidin-3(2H)-yl]cyclohexyl}-3-hydroxy-2-methylbenzamide]	8.49
CSc1cccc(-n2c(=O)n([C@H]3CC[C@@H](NC(=O)C4CCCC4)CC3)c(=O)c3cc(F)cnc32)c1 [Example 58, N-{cis-4-[6-fluoro-1-[3-(methylthio)phenyl]-2,4-dioxo-1,4-dihydropyrido[2,3-d]pyrimidin-3(2H)-yl]cyclohexyl}cyclopentanecarboxamide]	8.41
O=C([C@H](O)c1ccccc1)N1CC[C@@H](n2c(=O)c3cc(F)cnc3n(-c3ccc(F)c(F)c3)c2=O)C1 [Example 80, 1-(3,4-difluorophenyl)-6-fluoro-3-{(3R)-1-[(2R)-2-hydroxy-2-phenylacetyl]pyrrolidin-3-yl}pyrido[2,3-d]pyrimidine-2,4(1H,3H)-dione]	7.13
O=C(N[C@H]1CC[C@@H](n2c(=O)c3cc(F)cnc3n(-c3ccc(F)c(F)c3)c2=O)CC1)c1nc2ncccn2n1 [Example 107, N-{cis-4-[1-(3,4-difluorophenyl)-6-fluoro-2,4-dioxo-1,4-dihydropyrido[2,3-d]pyrimidin-3(2H)-yl]cyclohexyl}[1,2,4]triazolo[1,5-a]pyrimidine-2-carboxamide]	7.52
O=C(N[C@H]1CC[C@@H](n2c(=O)c3cc(F)cnc3n(-c3ccc(F)c(F)c3)c2=O)CC1)c1ncccc1O [Example 11, N-{cis-4-[1-(3,4-difluorophenyl)-6-fluoro-2,4-dioxo-1,4-dihydropyrido[2,3-d]pyrimidin-3(2H)-yl]cyclohexyl}-3-hydroxypyridine-2-carboxamide]	8.47
O=C(c1cc(CO)ccc1O)N1CCC(n2c(=O)c3cc(F)cnc3n(-c3ccc(F)c(F)c3)c2=O)CC1 [Example 78, 1-(3,4-difluorophenyl)-6-fluoro-3-{1-[2-hydroxy-5-(hydroxymethyl)benzoyl]piperidin-4-yl}pyrido[2,3-d]pyrimidine-2,4(1H,3H)-dione]	6.53
CS(=O)(=O)c1cccc(-n2c(=O)n([C@H]3CC[C@@H](NC(=O)c4cc(CO)ccc4O)CC3)c(=O)c3cc(F)cnc32)c1 [Example 41, N-{cis-4-[6-fluoro-1-[3-(methylsulfonyl)phenyl]-2,4-dioxo-1,4-dihydropyrido[2,3-d]pyrimidin-3(2H)-yl]cyclohexyl}-2-hydroxy-5-(hydroxymethyl)benzamide]	7.28
CC1=C(C(=O)N[C@H]2CC[C@@H](n3c(=O)c4cc(F)cnc4n(-c4ccc(F)c(F)c4)c3=O)CC2)SC2=NCCCN21 [Example 92, N-{cis-4-[1-(3,4-difluorophenyl)-6-fluoro-2,4-dioxo-1,4-dihydropyrido[2,3-d]pyrimidin-3(2H)-yl]cyclohexyl}-3-methyl-6,7-dihydro-5H-[1,3]thiazolo[3,2-a]pyrimidine-2-carboxamide]	8.11
O=C([C@H](O)c1ccccc1)N1CC[C@H](n2c(=O)c3cc(F)cnc3n(-c3ccc(F)c(F)c3)c2=O)C1 [Example 84, 1-(3,4-difluorophenyl)-6-fluoro-3-{(3S)-1-[(2R)-2-hydroxy-2-phenylacetyl]pyrrolidin-3-yl}pyrido[2,3-d]pyrimidine-2,4(1H,3H)-dione]	7.24
O=C(N[C@H]1CC[C@@H](n2c(=O)c3cc(F)cnc3n(-c3ccc(F)c(F)c3)c2=O)CC1)c1cn[nH]c1 [Example 94, N-{cis-4-[1-(3,4-difluorophenyl)-6-fluoro-2,4-dioxo-1,4-dihydropyrido[2,3-d]pyrimidin-3(2H)-yl]cyclohexyl}-1H-pyrazole-4-carboxamide]	8.27
O=C(N[C@H]1CC[C@@H](n2c(=O)c3cc(F)cnc3n(-c3ccc(F)c(F)c3)c2=O)CC1)c1cc[nH]n1 [Example 98, N-{cis-4-[1-(3,4-difluorophenyl)-6-fluoro-2,4-dioxo-1,4-dihydropyrido[2,3-d]pyrimidin-3(2H)-yl]cyclohexyl}-1H-pyrazole-3-carboxamide]	7.30

Next, values leading:

pIC50	Compound
8.59	COC(=O)c1cccc(-n2c(=O)n([C@H]3CC[C@@H](NC(=O)C4CCCCC4)CC3)c(=O)c3cc(F)cnc32)c1 [Example 75, methyl 3-[3-{cis-4-[(cyclohexylcarbonyl)amino]cyclohexyl}-6-fluoro-2,4-dioxo-3,4-dihydropyrido[2,3-d]pyrimidin-1(2H)-yl]benzoate]
8.66	O=C(Cc1ccc(O)cc1)N[C@H]1CC[C@@H](n2c(=O)c3cc(F)cnc3n(-c3ccc(F)c(F)c3)c2=O)CC1 [Example 8, N-{cis-4-[1-(3,4-difluorophenyl)-6-fluoro-2,4-dioxo-1,4-dihydropyrido[2,3-d]pyrimidin-3(2H)-yl]cyclohexyl}-2-(4-hydroxyphenyl)acetamide]
8.89	Cc1ccc(C(=O)N[C@H]2CC[C@@H](n3c(=O)c4cc(F)cnc4n(-c4ccc(F)c(F)c4)c3=O)CC2)cc1O [Example 15, N-{cis-4-[1-(3,4-difluorophenyl)-6-fluoro-2,4-dioxo-1,4-dihydropyrido[2,3-d]pyrimidin-3(2H)-yl]cyclohexyl}-3-hydroxy-4-methylbenzamide]
9.22	O=C(CNC(=O)c1ccccc1O)N[C@H]1CC[C@@H](n2c(=O)c3cc(F)cnc3n(-c3ccc(F)c(F)c3)c2=O)CC1 [Example 24, N-[2-({cis-4-[1-(3,4-difluorophenyl)-6-fluoro-2,4-dioxo-1,4-dihydropyrido[2,3-d]pyrimidin-3(2H)-yl]cyclohexyl}amino)-2-oxoethyl]-2-hydroxybenzamide]
9.30	O=C(N[C@H]1CC[C@@H](n2c(=O)c3cc(F)cnc3n(-c3ccc(F)c(F)c3)c2=O)CC1)c1cn2ccccc2n1 [Example 33, N-{cis-4-[1-(3,4-difluorophenyl)-6-fluoro-2,4-dioxo-1,4-dihydropyrido[2,3-d]pyrimidin-3(2H)-yl]cyclohexyl}imidazo[1,2-a]pyridine-2-carboxamide]
9.40	O=C(N[C@H]1CC[C@@H](n2c(=O)c3cc(F)cnc3n(-c3ccc(F)c(F)c3)c2=O)CC1)c1cccc2cccnc12 [Example 53, N-{cis-4-[1-(3,4-difluorophenyl)-6-fluoro-2,4-dioxo-1,4-dihydropyrido[2,3-d]pyrimidin-3(2H)-yl]cyclohexyl}quinoline-8-carboxamide]
8.77	COC(=O)CCCC(=O)N[C@H]1CC[C@@H](n2c(=O)c3cc(F)cnc3n(-c3ccc(F)c(F)c3)c2=O)CC1 [Example 27, methyl 5-({cis-4-[1-(3,4-difluorophenyl)-6-fluoro-2,4-dioxo-1,4-dihydropyrido[2,3-d]pyrimidin-3(2H)-yl]cyclohexyl}amino)-5-oxopentanoate]
9.05	O=C(Cc1cccc(O)c1)N[C@H]1CC[C@@H](n2c(=O)c3cc(F)cnc3n(-c3ccc(F)c(F)c3)c2=O)CC1 [Example 28, N-{cis-4-[1-(3,4-difluorophenyl)-6-fluoro-2,4-dioxo-1,4-dihydropyrido[2,3-d]pyrimidin-3(2H)-yl]cyclohexyl}-2-(3-hydroxyphenyl)acetamide]
9.13	O=C(N[C@H]1CC[C@@H](n2c(=O)c3cc(F)cnc3n(-c3ccc(F)c(F)c3)c2=O)CC1)c1cc2cccnc2[nH]1 [Example 103, N-{cis-4-[1-(3,4-difluorophenyl)-6-fluoro-2,4-dioxo-1,4-dihydropyrido[2,3-d]pyrimidin-3(2H)-yl]cyclohexyl}-1H-pyrrolo[2,3-b]pyridine-2-carboxamide]
8.64	Cc1ccc(O)c(C(=O)N[C@H]2CC[C@@H](n3c(=O)c4cc(F)cnc4n(-c4ccc(F)c(F)c4)c3=O)CC2)c1 [Example 72, N-{cis-4-[1-(3,4-difluorophenyl)-6-fluoro-2,4-dioxo-1,4-dihydropyrido[2,3-d]pyrimidin-3(2H)-yl]cyclohexyl}-2-hydroxy-5-methylbenzamide]
